US10202343B2, “MIF modulators” (YALE UNIVERSITY, priority 2008, dated 2019)
Read-outs that look alike come from different tables or passages of the source. Each block holds one compound with its values, some of them ahead of it.

Assays:
MIF tautomerase activity = target: T1, MIF tautomerase activity (Homo sapiens, UniProt P14174); details: literature, Cheng & Al-Abed 2006; cited from earlier work
T1 sequence (P14174 2-115 limits assumed): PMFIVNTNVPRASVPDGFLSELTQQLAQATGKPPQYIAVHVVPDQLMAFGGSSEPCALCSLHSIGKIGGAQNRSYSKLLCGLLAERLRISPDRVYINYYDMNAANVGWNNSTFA

[1] = target: T2, MIF-CD74 Binding (biotin-labeled recombinant human MIF, recombinant human MIF receptor CD74 ectodomain) (Homo sapiens, UniProt P14174); assay: MIF-CD74 binding (capture) assay; details: for CD74 % MaxInhib: number before @; for CD74 IC50: Table 6, data cell c9
T2 sequence (P14174 2-115 limits assumed): T1 sequence (P14174 2-115 limits assumed)

[2] = target: T3, Human MIF (MIF tautomerase activity) (Homo sapiens, UniProt P14174); assay: HPP tautomerase assay; type: biochemical; details: for HPP % MaxInhib: number before @; for HPP IC50: Table 8
T3 construct: made in house
T3 sequence (P14174 2-115 limits assumed): T1 sequence (P14174 2-115 limits assumed)

[3] = press release, cited from earlier work
ovarian cancer cell line = assay: growth of an ovarian cancer cell line; type: cell-based
Excerpt: KSP inhibitor ARRY-520 is used as a substitute for Paclitaxel in Type I ovarian cancer cells. J Transl Med. 7:63.

[4] = system: MIF-dependent signal transduction (ERK1/2 phosphorylation); assay: MIF-dependent signal transduction in cells (ERK1/2 phosphorylation); type: cell-based; details: compared to isoxazoline-1
Method: Two additional assays were performed on compounds according to the present invention. In the first, MIF-dependent signal transduction in cells as evidenced by a reduction in ERK1/2 phosphorylation and its inhibitory action is compared to the known small molecule MIF antagonist, isoxazoline-1 following the assay reported in Leng L., Metz C, Fang Y, Xu J, Donnelly S, Baugh J, Delonery T, Chen Y, Mitchell R A, and Bucala R. 2003. MIF Signal Transduction Initiated by Binding to CD74. J Exp Med 197, 1467-1476.

[5] = Table 6, data cell c7, read-out: HPP IC50

SMILES: CC(C)(C)OC(=O)C[C@H]1CC(c2ccc(O)c(F)c2)=NO1 [(R)-17]
potency (inhibition of MIF tautomerase activity) (MIF tautomerase activity): 0.55 µM

SMILES: N#Cc1ccc2c(=O)n(-c3ccc(Cl)cc3)sc2c1 [Compound 37]
Capture % Max. Inhib. ([1]; Table 3): 16%
CD74 % MaxInhib ([1]; Table 6, data cell c8): 16%
IC50 ([2]; Table 3, read-out: HPP IC50): 3.1 µM
IC50 [2, 5]: 3.1 µM
activity in the ovarian cancer assay (growth inhibition) (ovarian cancer cell line): significant activity

SMILES: O=c1oc2ccc(F)cc2n1Cc1cccc(O)c1 [MIF-108]
activity in the ovarian cancer assay (growth inhibition) (ovarian cancer cell line): significant activity

SMILES: O=c1c2ccc(F)cc2sn1-c1cccc(Cl)c1 [MIF-132]
concentration of CD74 % MaxInhib (number after @) ([1]; Table 6): 0.078 µM
CD74 % MaxInhib ([1]; Table 6, data cell c8): 20%
IC50 [2, 5]: 5 µM

SMILES: N#Cc1ccc(-n2sc3cc(F)ccc3c2=O)cc1 [MIF-133]
concentration of CD74 % MaxInhib (number after @) ([1]; Table 6): 0.078 µM
IC50 [2, 5]: 6.4 µM

SMILES: O=c1c2ccc(F)c(F)c2sn1-c1ccc(Cl)cc1 [MIF-134]
concentration of CD74 % MaxInhib (number after @) ([1]; Table 6): 3.76 µM
CD74 % MaxInhib ([1]; Table 6, data cell c8): 11%
IC50 [2, 5]: 5.6 µM

SMILES: O=c1c2cc(F)ccc2sn1-c1ccc(Cl)cc1 [MIF-141]
CD74 IC50 [1]: agonist
IC50 [2, 5]: 5.6 µM

SMILES: COc1ccc(-n2sc3ccc(F)cc3c2=O)cc1 [MIF-142]
CD74 IC50 [1]: agonist
IC50 [2, 5]: 6.5 µM

SMILES: O=c1c2cc(F)c(F)cc2sn1-c1ccc(Cl)cc1 [MIF-143]
CD74 IC50 [1]: agonist
IC50 [2, 5]: 4.9 µM

Now from value to compound, other results behind:

activity in the capture assay [1]: inactive
IC50 ([2]; read-out: inhibitor in the HPP tautomerase assay): 4.5 µM
SMILES: Ic1cc(-c2ccccc2)ncn1 [Compound 4-IPP, 4-iodo-6-phenylpyrimidine, reference compound]
anti-tumor activity ([3]; by blocking tumor-specific angiogenesis): exhibits anti-tumor activity
safety profile ([3]; laboratory studies): favorable safety profile

concentration of CD74 % MaxInhib (number after @) ([1]; Table 4): 0.0078 µM
IC50 ([2]; Table 4, read-out: HPP IC50): 0.01 µM
SMILES: Cc1ccc2oc(=O)n(Cc3cccc(O)c3)c2c1 [Compound 098]
inhibitory action on MIF-dependent ERK1/2 phosphorylation [4]: significant inhibitory action
activity in the ovarian cancer assay (growth inhibition) (ovarian cancer cell line): significant activity

concentration of CD74 % MaxInhib (number after @) ([1]; Table 10): 0.34 µM
CD74 % MaxInhib ([1]; Table 10): 22%
IC50 ([2]; Table 10, read-out: HPP IC50): 240 µM
SMILES: Fc1ccc2cc(-c3ccc(Cl)cc3)[nH]c2c1 [MIF-127]

concentration of CD74 % MaxInhib (number after @) ([1]; Table 10): 0.0039 µM
CD74 % MaxInhib ([1]; Table 10): 20%
IC50 ([2]; Table 10, read-out: HPP IC50): 280 µM
SMILES: Fc1ccc2[nH]c(-c3ccc(Cl)cc3)cc2c1 [MIF-128]

concentration of CD74 % MaxInhib (number after @) ([1]; Table 11): 0.12 µM
CD74 % MaxInhib ([1]; Table 11): 27%
IC50 ([2]; Table 11, read-out: HPP IC50): 490 µM
SMILES: Fc1ccc2nn(-c3ccc(Cl)cc3)cc2c1 [MIF-129]

concentration of CD74 % MaxInhib (number after @) ([1]; Table 12): 0.34 µM
CD74 % MaxInhib ([1]; Table 12): 21%
HPP % MaxInhib ([2]; Table 12): 28%
SMILES: Fc1ccc2[nH]c(-c3ccc(Cl)cc3)nc2c1 [MIF-130]

concentration of CD74 % MaxInhib (number after @) ([1]; Table 11): 0.12 µM
CD74 % MaxInhib ([1]; Table 11): 29%
HPP % MaxInhib ([2]; Table 11): 30%
SMILES: Fc1ccc2cn(-c3ccc(Cl)cc3)nc2c1 [MIF-131]

concentration of CD74 % MaxInhib (number after @) ([1]; Table 8): 0.078 µM
HPP IC50 [2]: agonist
SMILES: c1ccc(-c2nc3ccccc3s2)cc1 [MIF-137]

concentration of CD74 % MaxInhib (number after @) ([1]; Table 8): 0.078 µM
CD74 % MaxInhib ([1]; Table 8): 20%
HPP IC50 [2]: agonist
SMILES: Cc1ccc2nc(-c3ccccc3)sc2c1 [MIF-138]
